Assay results as given in patent publication US12297476B2, “Metallic nanoparticles and methods of making and using the same” (Saint Joseph's University, priority 2020, dated 2025).

Tested on: Medicago sativa cells
Conditions: 200 ppm (highest concentration), after two weeks of continuous growth in liquid medium
Procedure: To determine the IC50 of KAuCl4, the filter sterilized stock solution of KAuCl4 (prepared in deionized water) was added at different concentrations (10-200 ppm) to 20 mL culture having a cell density of 20,000 cells/mL and incubated on the shaker for 2 weeks. Culture aliquots (1 mL) were collected at an interval of 48 h, spun at 2000 rpm for 10 min, stained with phosphate buffered Trypan Blue, and dead cells were counted using a haemocytometer. Percentage of cell death was determined from the total cell number.

Structure (SMILES): [Cl][Au-]([Cl])([Cl])[Cl].[K+] [KAuCl4, potassium gold chloride]
- cells eliminated from the culture (cell death): 25%
